Square brackets hold non-standard residues; d marks the D form. Peptide text beside a SMILES is read from it.
How the values were obtained:
[1] = biological target: T1, SSTR2 (Rattus norvegicus, UniProt P30680); assay: Competitive binding of 125I labeled S-14 to membranes of cells expressing SSTR2; conditions: 125I labeled S-14, membranes
T1 construct: expressed in transfected cells
Experimental: Membrane preparation. Tissue culture cell lines expressing transfected CDNA clones of SSTR2, and SSTR5 are used as a source of plasma membranes which specifically bind ^125 I labeled S-14 (Amersham, Arlington Heights, Ill.). Cells are removed from culture dishes by incubation at 4° C. for 5 minutes in PBS containing 1 mM EDTA, spun down (2,000 rpm, 5') and resuspended in 15 mL homogenization buffer (1 mM sodium bicarbonate pH 7.2, 1 mM EDTA, 1 mM EGTA and the following protease inhibitors: leupeptin and aprotenin at 5 μg/mL and benzamidine and bacitracin at 100 μg/mL). Cells are given 20 strokes with a Dounce homogenizer on ice and spun at 2000 rpm for 10 minutes. Membranes are isolated from the supernatant by centrifugation at 17,000 rpm for 30 minutes. The membrane pellet is washed once in 15 mL homogenization buffer and once in storage buffer (25 mM Tris pH 7.4 containing protease inhibitors). Each wash is followed by centrifugation at 17,000 rpm for 30 minutes. The membrane pellet is resuspended in storage buffer, measured for protein concentration (BioRad, Calif.) and stored at -80° C.
Binding assay. All reagents for the binding assay are prepared in binding buffer (50 mM Hepes pH 7.4, 2 mM EGTA, 5 mM MgCl2 and protease inhibitors). Membranes are thawed on ice and diluted to […] protein/50 μL binding buffer. ^125 I labeled S-14 (Amersham, Arlington Heights, Ill.) is diluted to 80-100,000 cpm/50 μL in binding buffer. Competitors, either test peptides or standards, are prepared at 4× final concentrations in binding buffer, as are wheat germ agglutinin (WGA)-linked PVC beads that contain solid scintillant (SPA beads, Amersham, Arlington Heights, Ill.). The binding assay is initiated by mixing 50 μL each of membranes, radiolabelled S-14, competitors and SPA beads in each well of a 96-well tray. The assay is incubated by shaking for 10-30 minutes at room temperature and then placing at 4° C. overnight. Bound radioligand is determined by counting in a Microbeta Liquid Scintillation counter (Wallac, Gaithersburg, Md.). Binding data is plotted and IC50 and Ki values are calculated for test compounds using Prism software (Graphpad Software Inc., San Diego, Calif.) and are shown in Table V. Binding is expressed as Ki, μM.

[2] = biological target: T2, S. cerevisiae (yeast) cells expressing SRIF receptors (Rattus norvegicus, UniProt P30680); assay: Yeast bioassay for SRIF antagonist activity (LY364 cells growing in response to SRIF, zone of growth inhibition); assay type: cell-based; conditions: Sample type 4th iteration; 10 μL of 5 mg/mL on disk, SRIF 10 nM, read after 3 days
T2 construct: expressed in transfected cells; host or cells: S. cerevisiae strain LY364
T2 sequence (P30680 whole entry): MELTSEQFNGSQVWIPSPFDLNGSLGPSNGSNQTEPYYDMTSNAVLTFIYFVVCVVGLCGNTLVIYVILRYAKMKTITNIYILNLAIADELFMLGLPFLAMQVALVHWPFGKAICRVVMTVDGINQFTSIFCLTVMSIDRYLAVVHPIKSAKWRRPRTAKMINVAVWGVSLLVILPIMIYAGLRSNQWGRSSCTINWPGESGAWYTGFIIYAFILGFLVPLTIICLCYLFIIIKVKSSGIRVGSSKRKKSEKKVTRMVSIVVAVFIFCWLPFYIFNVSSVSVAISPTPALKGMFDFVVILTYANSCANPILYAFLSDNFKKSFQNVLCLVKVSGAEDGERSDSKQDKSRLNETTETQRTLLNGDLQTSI
Source text: SRIF antagonist assay using S. cerevisiae (yeast) cells expressing SRIF receptors that grow in response to SRIF
Agar plates containing LY364 cells that are growing in the presence of added SRIF are the basis for a sensitive SRIF antagonist assay, whereby zones of growth inhibition result from the addition of SRIF antagonists to the surface of the agar plate (see L. A. Price, et al., Molecular and Cellular Biology, 15, 6188-6195, 1995, incorporated herein by reference).
In this assay, LY364 cells are grown overnight in 2 mL of synthetic complete(SC) medium (3.4 g/L YNB without amino acids and ammonium sulfate, 10 g/L ammonium sulfate and 1.4 g/L CSM-ura-trp) with glucose (2%) and without uracil and tryptophan. These cells are washed and cultured for 4 to 8 hours in 5 mL of SC medium with lactate (3%) and without uracil and tryptophan, and finally grown overnight in 5 mL of SC medium with galactose (2%) and without uracil and tryptophan. Molten (50° C.) SC agar medium with galactose (2%) and without uracil, tryptophan and histidine is adjusted to pH 6.8 with KOH, mixed with 2×10^4 cells/mL and SRIF (S-14, 10 nM) and poured into square (20×20 cm) petri dishes. Sterile filter disks are placed on the surface of the agar, and saturated with 10 μL of water or DMSO containing 5 mg/mL test peptides. After three days, the plates display a uniform cloudy background of LY264 cells growing in response to the added SRIF. […] This zone is quantified by measuring its diameter (mm), which varies according to the potency of the SRIF antagonist. Those peptides or mixtures of peptides displaying the largest zones of inhibition are further characterized.
Values are compared among samples in the same experiment, as the degree of yeast growth varies somewhat from assay to assay. For the first five sample types, in which progressively less complex mixtures of peptides are found, this assay is the primary determining factor in choosing which samples form the basis of subsequent syntheses.
Plates are read after 3 days. Samples shown in Table I in bold type are chosen for further synthesis. In Table I, all amino acids are D-amino acids and dashes represent undefined amino acid residues.

[3] = tested on: Male Sprague-Dawley rats; assay: Serum growth hormone levels in anaesthetized rats given GRF with and without peptide 1; assay type: in vivo, rat
Experimental: Evaluation in anaesthetized rats. Male Sprague-Dawley rats are anaesthetized with Sagatal and fitted so as to allow efficient intravenous treatment with control and test compounds as well as frequent blood sampling. Blood samples are tested for growth hormone (GH) levels by radioimmunoassay. Thirty minutes after the initiation of blood sampling, rats are given 5 μg, 25 μg or 50 μg of peptide 1.
Peptide 1 is tested in combination with growth hormone releasing factor (GRF), to investigate whether said peptide may be mimicking the action of GRF. Anaesthetized rats are given GRF (1 μg) alone and in combination with peptide 1 (50 μg).

T1 sequence (P30680 whole entry): as above

| Compound | Ki [1] [nM] | Inhibition Zone [2] [mm] | also measured |
| --- | --- | --- | --- |
| CC[C@@H](C)[C@H]1NC(=O)[C@@H](Cc2ccccc2)NC(=O)[C@@H](Cc2c[nH]cn2)NC(=O)[C@@H](Cc2ccccc2)NC(=O)[C@@H](Cc2c[nH]c3ccccc23)NC(=O)[C@@H](CCCNC(=N)N)NC1=O [#STR6##] (cyclo([dH][dF][dI][dR][dW][dF])) | 140 | – | – |
| CC[C@@H](C)[C@@H](NC(=O)[C@@H](Cc1ccccc1)NC(=O)[C@@H](Cc1c[nH]cn1)NC(C)=O)C(=O)N[C@H](CCCNC(=N)N)C(=O)N[C@H](Cc1c[nH]c2ccccc12)C(=O)N[C@@H](C(N)=O)[C@H](C)O [His Phe Ile Arg Trp Thr] (Ac-[dH][dF][dI][dR][dW][dT]-NH2) | – | 14 | – |
| CC[C@@H](C)[C@@H](NC(=O)[C@@H](Cc1ccccc1)NC(=O)[C@@H](Cc1c[nH]cn1)NC(C)=O)C(=O)N[C@H](CCCNC(=N)N)C(=O)N[C@H](Cc1c[nH]c2ccccc12)C(=O)N[C@H](Cc1c[nH]c2ccccc12)C(N)=O [His Phe Ile Arg Trp Trp] (Ac-[dH][dF][dI][dR][dW][dW]-NH2) | – | 16 | – |
| CC[C@@H](C)[C@@H](NC(=O)[C@@H](Cc1ccccc1)NC(=O)[C@@H](Cc1c[nH]cn1)NC(=O)[C@@H](Cc1ccccc1)NC(=O)[C@@H](Cc1c[nH]c2ccccc12)NC(C)=O)C(=O)N[C@H](CCCNC(=N)N)C(N)=O [Peptide 32, w-f-h-f-i-r] (Ac-[dW][dF][dH][dF][dI][dR]-NH2) | 37200 | – | – |
| growth hormone releasing factor [GRF] | – | – | SGH ([3]; GRF 1 μg alone or with peptide 1 50 μg at 30 min, sample 35 min): 67.1 ng/mL; SGH ([3]; GRF 1 μg alone or with peptide 1 50 μg at 30 min, sample 40 min): 103.5 ng/mL; SGH ([3]; GRF 1 μg alone or with peptide 1 50 μg at 30 min, sample 45 min): 53.1 ng/mL; SGH ([3]; GRF 1 μg alone or with peptide 1 50 μg, 30 min (time of dosing)): 8.4 ng/mL |

Second part, led by results:

| Ki [1] [nM] | Inhibition Zone [2] [mm] | Compound | also measured |
| --- | --- | --- | --- |
| – | 16 | CC[C@@H](C)[C@@H](NC(=O)[C@@H](Cc1ccccc1)NC(=O)[C@@H](Cc1c[nH]cn1)NC(C)=O)C(=O)N[C@H](CCCNC(=N)N)C(=O)N[C@H](Cc1c[nH]c2ccccc12)C(=O)N[C@H](Cc1ccc(O)cc1)C(N)=O [His Phe Ile Arg Trp Tyr] (Ac-[dH][dF][dI][dR][dW][dY]-NH2) | – |
| 970 | – | CC[C@@H](C)[C@@H](NC(=O)[C@@H](Cc1c[nH]c2ccccc12)NC(=O)[C@@H](Cc1c[nH]cn1)NC(C)=O)C(=O)N[C@H](CCCNC(=N)N)C(=O)N[C@H](Cc1ccccc1)C(=O)N[C@H](Cc1ccccc1)C(N)=O [Peptide 29, h-w-i-r-f-f] (Ac-[dH][dW][dI][dR][dF][dF]-NH2) | – |
| 2800 | – | CC[C@@H](C)[C@@H](NC(=O)[C@@H](CCCNC(=N)N)NC(=O)[C@@H](Cc1c[nH]c2ccccc12)NC(=O)[C@@H](Cc1ccccc1)NC(=O)[C@@H](Cc1c[nH]cn1)NC(C)=O)C(=O)N[C@H](Cc1ccccc1)C(N)=O [Peptide 30, h-f-w-r-i-f] (Ac-[dH][dF][dW][dR][dI][dF]-NH2) | – |
| 2500 | – | CC[C@@H](C)[C@@H](NC(=O)[C@@H](CCCNC(=N)N)NC(=O)[C@@H](Cc1ccccc1)NC(=O)[C@@H](Cc1c[nH]cn1)NC(C)=O)C(=O)N[C@H](Cc1c[nH]c2ccccc12)C(=O)N[C@H](Cc1ccccc1)C(N)=O [Peptide 31, h-f-r-i-w-f] (Ac-[dH][dF][dR][dI][dW][dF]-NH2) | – |
| 2800 | – | CC[C@@H](C)[C@@H](NC(C)=O)C(=O)N[C@H](CCCNC(=N)N)C(=O)N[C@H](Cc1c[nH]c2ccccc12)C(=O)N[C@H](Cc1ccccc1)C(=O)N[C@H](Cc1c[nH]cn1)C(=O)N[C@H](Cc1ccccc1)C(N)=O [Peptide 33, i-r-w-f-h-f] (Ac-[dI][dR][dW][dF][dH][dF]-NH2) | – |
